Numbers after ± are expanded uncertainties.
Settings: 298 K; 101.33 kPa; Crystal; Buoyancy - hydrostatic balance

| mass density [kg/m3] | Compound |
| --- | --- |
| 2656 ± 310 | [Al] [aluminum] |
| 9999 ± 600 | [Mo] [molybdenum] |
